These results are taken from patent publication US20260364215A1, “Radiopharmaceutical Compositions Targeting Ephrin Type-A Receptor 2 and Uses Thereof” (PeptiDream Inc., priority 2022, published 2026).

Numbered stars: 1 amine (or outer) side, 2 acyl side, 3 side chain; on linkers, the order of the positions; unused ones are H or OH. Bridge positions count the residues as written; N and C are the ends. Square brackets hold non-standard residues; d marks the D form. Side chains are listed from the residue outwards. Peptide text beside a SMILES is read from it. * marks the point of attachment. DOTA(Lu) = O=C1CN2CCN3CCN(CC(=O)*)CCN(CC2)CC(=O)[O][Lu]([O]1)[O]C(=O)C3; NH(1-deoxy-D-glucityl) = OC[C@@H](O)[C@@H](O)[C@H](O)[C@@H](O)CN*; DOTA = O=C(O)CN1CCN(CC(=O)O)CCN(CC(=O)*)CCN(CC(=O)O)CC1; Trp(1-Me,7-Cl) = Cn1cc(C[C@H](N)C(=O)O)c2cccc(Cl)c21; dPhe(3-CONH2) = NC(=O)c1cccc(C[C@@H](N)C(=O)O)c1; Piperazinyl(4-CH2COOH) = O=C(O)CN1CCN(*)CC1; Trp(1-Me) = Cn1cc(C[C@H](N)C(=O)O)c2ccccc21; NMemTyr = CN[C@@H](Cc1cccc(O)c1)C(=O)O; NMe3Pal = CN[C@@H](Cc1cccnc1)C(=O)O; hCit = NC(=O)NCCCC[C@H](N)C(=O)O; Gly(cBu) = N[C@H](C(=O)O)C1CCC1; NMeE = CN[C@@H](CCC(=O)O)C(=O)O; Aad = N[C@@H](CCCC(=O)O)C(=O)O; NMeN = CN[C@@H](CC(N)=O)C(=O)O; CO = O=C([*:1])[*:2]

For the first test, the target named is T1, Recombinant Human EphA2 Fc Protein (Homo sapiens, UniProt P29317).
T1 construct: purchased Elabscience
T1 sequence (P29317 24-534 limits assumed): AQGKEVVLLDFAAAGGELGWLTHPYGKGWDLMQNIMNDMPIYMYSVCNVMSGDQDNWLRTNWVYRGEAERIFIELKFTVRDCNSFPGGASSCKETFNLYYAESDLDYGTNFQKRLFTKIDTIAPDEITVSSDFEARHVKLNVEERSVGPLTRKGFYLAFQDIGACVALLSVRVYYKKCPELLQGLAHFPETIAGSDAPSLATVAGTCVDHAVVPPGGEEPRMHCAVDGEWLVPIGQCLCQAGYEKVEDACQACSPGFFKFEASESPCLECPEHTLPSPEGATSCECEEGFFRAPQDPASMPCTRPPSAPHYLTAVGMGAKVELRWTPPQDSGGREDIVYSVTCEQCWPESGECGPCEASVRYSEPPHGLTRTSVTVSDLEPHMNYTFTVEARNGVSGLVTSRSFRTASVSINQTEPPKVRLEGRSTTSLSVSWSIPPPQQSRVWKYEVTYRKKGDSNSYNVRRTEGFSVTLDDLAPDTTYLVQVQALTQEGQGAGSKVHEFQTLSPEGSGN
Kind of test: Interaction analysis (kinetics, KD) of peptides and conjugates against EphA2 by SPR, Biacore T200, single-cycle kinetics (Examples B15 and B22). It counts as binding.
Conditions: not given
The method, boiled down:
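Biacore T200 SPR with Fc-tagged human EphA2 captured via anti-human antibody; running buffer HBS-P+ pH 7.4 with 1% DMSO, 25 °C. Five serial dilutions of peptide or conjugate run by single-cycle kinetics; KD from ka and kd after baseline subtraction.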
On the technique in general: In SPR one partner is held on a chip, and binding of the other changes the refractive index at the surface.
Regarding `CN1C(=O)[C@H](CCCC(N)=O)NC(=O)[C@H](C2CCC2)NC(=O)[C@H](CC(N)=O)NC(=O)[C@H](Cc2cccnc2)N(C)C(=O)[C@@H](Cc2cccc(C(N)=O)c2)NC(=O)CSC[C@@H](C(=O)N[C@@H](CCCCNC(=O)CN2CCN3CCN4CCN(CC2)CC(=O)[O][Lu]([O]C(=O)C3)[O]C(=O)C4)C(N)=O)NC(=O)[C@H](Cc2cn(C)c3ccccc23)NC(=O)[C@H](CCCCNC(=O)N2CCN(CC(=O)O)CC2)NC(=O)[C@H](Cc2cn(C)c3c(Cl)cccc23)NC(=O)[C@@H]1CCC(=O)O` [PDC_EphA2-00026606-C301] ({CH2CO}-[dPhe(3-CONH2)][NMe3Pal]N[Gly(cBu)][Aad](NH2)[NMeE][Trp(1-Me,7-Cl)]K([CO-Piperazinyl(4-CH2COOH)])[Trp(1-Me)]CK(DOTA(Lu))-NH2; thioether N-10), the Kd is less than 1 nM.
Still for that read-out and setting: the figure for `CN1C(=O)[C@H](CCC(=O)NC[C@H](O)[C@@H](O)[C@H](O)[C@H](O)CO)NC(=O)[C@H](C2CCC2)NC(=O)[C@H](CC(N)=O)NC(=O)[C@H](Cc2cccnc2)N(C)C(=O)[C@@H](Cc2cccc(C(N)=O)c2)NC(=O)CSC[C@@H](C(=O)N[C@@H](CCCCNC(=O)CN2CCN3CCN4CCN(CC2)CC(=O)[O][Lu]([O]C(=O)C3)[O]C(=O)C4)C(N)=O)NC(=O)[C@H](Cc2cn(C)c3ccccc23)NC(=O)[C@H](CCCCNC(N)=O)NC(=O)[C@H](Cc2cn(C)c3c(Cl)cccc23)NC(=O)[C@@H]1CCC(=O)O` [PDC_EphA2-00026607-C301] ({CH2CO}-[dPhe(3-CONH2)][NMe3Pal]N[Gly(cBu)]E(NH(1-deoxy-D-glucityl))[NMeE][Trp(1-Me,7-Cl)][hCit][Trp(1-Me)]CK(DOTA(Lu))-NH2; thioether N-10) is less than 1 nM; for `CN1C(=O)[C@H](CCCC(N)=O)NC(=O)[C@H](C2CCC2)NC(=O)[C@H](CC(N)=O)NC(=O)[C@H](Cc2cccc(O)c2)N(C)C(=O)[C@@H](Cc2cccc(C(N)=O)c2)NC(=O)CSC[C@@H](C(=O)N[C@@H](CCCCNC(=O)CN2CCN3CCN4CCN(CC2)CC(=O)[O][Lu]([O]C(=O)C3)[O]C(=O)C4)C(N)=O)NC(=O)[C@H](Cc2cn(C)c3ccccc23)NC(=O)[C@H](CCCCNC(=O)N2CCN(CC(=O)O)CC2)NC(=O)[C@H](Cc2cn(C)c3c(Cl)cccc23)NC(=O)[C@@H]1CCC(=O)O` [PDC_EphA2-00026608-C301] ({CH2CO}-[dPhe(3-CONH2)][NMemTyr]N[Gly(cBu)][Aad](NH2)[NMeE][Trp(1-Me,7-Cl)]K([CO-Piperazinyl(4-CH2COOH)])[Trp(1-Me)]CK(DOTA(Lu))-NH2; thioether N-10) it is less than 1 nM.
Still for that read-out and setting: the figure for `CC(C)C[C@@H]1NC(=O)[C@H](CC(N)=O)NC(=O)[C@H](Cc2cccnc2)N(C)C(=O)[C@@H](C)NC(=O)CSC[C@@H](C(N)=O)NC(=O)[C@H](CCCC(N)=O)NC(=O)[C@H]([C@@H](C)O)NC(=O)[C@H](Cc2cn(C)c3ccccc23)NC(=O)[C@H](CCCCNC(=O)N2CCN(CC(=O)O)CC2)NC(=O)[C@H](Cc2cn(C)c3c(Cl)cccc23)NC(=O)[C@H](CCC(=O)O)N(C)C(=O)[C@H](CCCCNC(=O)CN2CCN3CCN4CCN(CC2)CC(=O)[O][Lu]([O]C(=O)C3)[O]C(=O)C4)NC1=O` [PDC_EphA2-00026631] ({CH2CO}-[dA][NMe3Pal]NLK(DOTA(Lu))[NMeE][Trp(1-Me,7-Cl)]K([CO-Piperazinyl(4-CH2COOH)])[Trp(1-Me)]T[Aad](NH2)C-NH2; thioether N-12) is less than 1 nM; for `CC(C)C[C@@H]1NC(=O)[C@H](CC(N)=O)NC(=O)[C@H](Cc2cccnc2)N(C)C(=O)[C@@H](C)NC(=O)CSC[C@@H](C(N)=O)NC(=O)[C@H](CCCC(N)=O)NC(=O)[C@H]([C@@H](C)O)NC(=O)[C@H](Cc2cn(C)c3ccccc23)NC(=O)[C@H](CCCCNC(=O)CN2CCN3CCN4CCN(CC2)CC(=O)[O][Lu]([O]C(=O)C3)[O]C(=O)C4)NC(=O)[C@H](Cc2cn(C)c3c(Cl)cccc23)NC(=O)[C@H](CCC(=O)O)N(C)C(=O)[C@H](CCCC(N)=O)NC1=O` [PDC_EphA2-00026632] ({CH2CO}-[dA][NMe3Pal]NL[Aad](NH2)[NMeE][Trp(1-Me,7-Cl)]K(DOTA(Lu))[Trp(1-Me)]T[Aad](NH2)C-NH2; thioether N-12) it is less than 1 nM.
Still for that read-out and setting: the figure for `CC(C)C[C@@H]1NC(=O)[C@H](CC(N)=O)NC(=O)[C@H](Cc2cccnc2)N(C)C(=O)[C@@H](C)NC(=O)CSC[C@@H](C(N)=O)NC(=O)[C@H](CCCCNC(=O)CN2CCN3CCN4CCN(CC2)CC(=O)[O][Lu]([O]C(=O)C3)[O]C(=O)C4)NC(=O)[C@H]([C@@H](C)O)NC(=O)[C@H](Cc2cn(C)c3ccccc23)NC(=O)[C@H](CCCCNC(=O)N2CCN(CC(=O)O)CC2)NC(=O)[C@H](Cc2cn(C)c3c(Cl)cccc23)NC(=O)[C@H](CCC(=O)O)N(C)C(=O)[C@H](CCCC(N)=O)NC1=O` [PDC_EphA2-00026633] ({CH2CO}-[dA][NMe3Pal]NL[Aad](NH2)[NMeE][Trp(1-Me,7-Cl)]K([CO-Piperazinyl(4-CH2COOH)])[Trp(1-Me)]TK(DOTA(Lu))C-NH2; thioether N-12) is less than 1 nM.
In the case of `CC(C)C[C@@H]1NC(=O)[C@H](CC(N)=O)NC(=O)[C@H](Cc2cccnc2)N(C)C(=O)[C@@H](Cc2cccc(C(N)=O)c2)NC(=O)CSC[C@@H](C(N)=O)NC(=O)[C@H](CCCC(N)=O)NC(=O)[C@H]([C@@H](C)O)NC(=O)[C@H](Cc2cn(C)c3ccccc23)NC(=O)[C@H](CCC(=O)NC[C@H](O)[C@@H](O)[C@H](O)[C@H](O)CO)NC(=O)[C@H](Cc2cn(C)c3c(Cl)cccc23)NC(=O)[C@H](CC(N)=O)N(C)C(=O)[C@H](CCCCNC(=O)CN2CCN3CCN4CCN(CC2)CC(=O)[O][Lu]([O]C(=O)C3)[O]C(=O)C4)NC1=O` [PDC_EphA2-00026714] ({CH2CO}-[dPhe(3-CONH2)][NMe3Pal]NLK(DOTA(Lu))[NMeN][Trp(1-Me,7-Cl)]E(NH(1-deoxy-D-glucityl))[Trp(1-Me)]T[Aad](NH2)C-NH2; thioether N-12), the Kd is less than 1 nM.
Same read-out and setting: the figure for `CC(C)C[C@@H]1NC(=O)[C@H](CC(N)=O)NC(=O)[C@H](Cc2cccnc2)N(C)C(=O)[C@@H](Cc2cccc(C(N)=O)c2)NC(=O)CSC[C@@H](C(N)=O)NC(=O)[C@H](CCCC(N)=O)NC(=O)[C@H]([C@@H](C)O)NC(=O)[C@H](Cc2cn(C)c3ccccc23)NC(=O)[C@H](CCCCNC(=O)CN2CCN3CCN4CCN(CC2)CC(=O)[O][Lu]([O]C(=O)C3)[O]C(=O)C4)NC(=O)[C@H](Cc2cn(C)c3c(Cl)cccc23)NC(=O)[C@H](CC(N)=O)N(C)C(=O)[C@H](CCCC(N)=O)NC1=O` [PDC_EphA2-00026715] ({CH2CO}-[dPhe(3-CONH2)][NMe3Pal]NL[Aad](NH2)[NMeN][Trp(1-Me,7-Cl)]K(DOTA(Lu))[Trp(1-Me)]T[Aad](NH2)C-NH2; thioether N-12) is less than 1 nM.
The same measure, in the same setting: the figure for `CC(C)C[C@@H]1NC(=O)[C@H](CC(N)=O)NC(=O)[C@H](Cc2cccnc2)N(C)C(=O)[C@@H](Cc2cccc(C(N)=O)c2)NC(=O)CSC[C@@H](C(N)=O)NC(=O)[C@H](CCCC(N)=O)NC(=O)[C@H]([C@@H](C)O)NC(=O)[C@H](Cc2cn(C)c3ccccc23)NC(=O)[C@H](CCCCNC(=O)CN2CCN3CCN4CCN(CC2)CC(=O)[O][Lu]([O]C(=O)C3)[O]C(=O)C4)NC(=O)[C@H](Cc2cn(C)c3c(Cl)cccc23)NC(=O)[C@H](CCC(=O)O)N(C)C(=O)[C@H](CCCC(N)=O)NC1=O` [PDC_EphA2-00026718] ({CH2CO}-[dPhe(3-CONH2)][NMe3Pal]NL[Aad](NH2)[NMeE][Trp(1-Me,7-Cl)]K(DOTA(Lu))[Trp(1-Me)]T[Aad](NH2)C-NH2; thioether N-12) is less than 1 nM.

The same test, now with this note: conjugates, Biacore T200 according to Example B15, Table B16; read-out: SPR Kd.
As for `CC(C)C[C@@H]1NC(=O)[C@H](CC(N)=O)NC(=O)[C@H](Cc2cccnc2)N(C)C(=O)[C@@H](Cc2cccc(C(N)=O)c2)NC(=O)CSC[C@@H](C(N)=O)NC(=O)[C@H](CCCCNC(=O)CN2CCN(CC(=O)O)CCN(CC(=O)O)CCN(CC(=O)O)CC2)NC(=O)[C@H]([C@@H](C)O)NC(=O)[C@H](Cc2cn(C)c3ccccc23)NC(=O)[C@H](CCC(=O)NC[C@H](O)[C@@H](O)[C@H](O)[C@H](O)CO)NC(=O)[C@H](Cc2cn(C)c3c(Cl)cccc23)NC(=O)[C@H](CC(N)=O)N(C)C(=O)[C@H](CCCC(N)=O)NC1=O.[Lu+3]` [PDC_EphA2-00026716] ({CH2CO}-[dPhe(3-CONH2)][NMe3Pal]NL[Aad](NH2)[NMeN][Trp(1-Me,7-Cl)]E(NH(1-deoxy-D-glucityl))[Trp(1-Me)]TK(DOTA)C-NH2; thioether N-12), the Kd is less than 1 nM.
The same measure, in the same setting: then `CC(C)C[C@@H]1NC(=O)[C@H](CC(N)=O)NC(=O)[C@H](Cc2cccnc2)N(C)C(=O)[C@@H](Cc2cccc(C(N)=O)c2)NC(=O)CSC[C@@H](C(N)=O)NC(=O)[C@H](CCCC(N)=O)NC(=O)[C@H]([C@@H](C)O)NC(=O)[C@H](Cc2cn(C)c3ccccc23)NC(=O)[C@H](CCCCNC(=O)N2CCN(CC(=O)O)CC2)NC(=O)[C@H](Cc2cn(C)c3c(Cl)cccc23)NC(=O)[C@H](CCC(=O)O)N(C)C(=O)[C@H](CCCCNC(=O)CN2CCN(CC(=O)O)CCN(CC(=O)O)CCN(CC(=O)O)CC2)NC1=O.[Lu+3]` [PDC_EphA2-00026717] ({CH2CO}-[dPhe(3-CONH2)][NMe3Pal]NLK(DOTA)[NMeE][Trp(1-Me,7-Cl)]K([CO-Piperazinyl(4-CH2COOH)])[Trp(1-Me)]T[Aad](NH2)C-NH2; thioether N-12), with less than 1 nM; and `CC(C)C[C@@H]1NC(=O)[C@H](CC(N)=O)NC(=O)[C@H](Cc2cccnc2)N(C)C(=O)[C@@H](Cc2cccc(C(N)=O)c2)NC(=O)CSC[C@@H](C(N)=O)NC(=O)[C@H](CCCCNC(=O)CN2CCN(CC(=O)O)CCN(CC(=O)O)CCN(CC(=O)O)CC2)NC(=O)[C@H]([C@@H](C)O)NC(=O)[C@H](Cc2cn(C)c3ccccc23)NC(=O)[C@H](CCCCNC(=O)N2CCN(CC(=O)O)CC2)NC(=O)[C@H](Cc2cn(C)c3c(Cl)cccc23)NC(=O)[C@H](CCC(=O)O)N(C)C(=O)[C@H](CCCC(N)=O)NC1=O.[Lu+3]` [PDC_EphA2-00026719] ({CH2CO}-[dPhe(3-CONH2)][NMe3Pal]NL[Aad](NH2)[NMeE][Trp(1-Me,7-Cl)]K([CO-Piperazinyl(4-CH2COOH)])[Trp(1-Me)]TK(DOTA)C-NH2; thioether N-12), with less than 1 nM.

What is called Kd is the constant that tells how readily two partners part at equilibrium.
